From patent US20050142626A1, “Diagnostic methods for asthma” (priority 1999, published 2005)

Columns and labels:
[1] = Chemical stability of L-tyrosine oxidation products (Peaks I and II) of the EPO-H2O2-Br- system; conditions: to acid, peroxide, reductants and nucleophilic compounds; prolonged incubation at 37° C. with H2O2
[2] = tested on: eosinophil peroxidase-H2O2—Br− system; assay: 3-Bromotyrosine formation in BSA incubated with activated phagocytes (eosinophils); assay type: cell-based; conditions: BSA with phorbol ester activated cells, plasma levels of bromide
Description: Reactions were initiated by addition of oxidant (H2O2, HOBr, N-bromo or N,N-dibromo amine) and performed in sodium phosphate buffer (pH 7.0) at 37° C. for 60 min. Proteins oxidized in vitro were prepared for analysis by first precipitating and desalting them in a single-phase extraction mixture comprised of H2O:methanol:H2O-saturated diethyl ether (1:3:7, v:v:v) as described in Hazen, S. L., Hsu, F. F., Gaut, J. P., Crowler, J. R. and Heinecke, J. W. “Modification of Proteins and Lipids by Myeloperoxidase-Derived Oxidants” In: Methods of Enzymology, Edited by Lester Packer, Vol. 300, pp. 88-106. Academic Press, Inc., San Diego. 1999, followed by acid hydrolysis in methane sulfonic acid. […]
L-Tyrosine, 3-bromotyrosine and 3,5-dibromotyrosine generated by phagocytes and human tissues were quantified by stable isotope dilution GC/MS in the negative-ion chemical ionization mode. n-Propyl, per heptafluorobutyryl (HFB) derivatives of amino acids were prepared by standard methods and analyzed on a Perkin Elmer TurboMass mass spectrometer equipped with chemical ionization probe. […] 3-Bromotyrosine was monitored as its n-propyl per HFB derivative using two structurally informative fragment ions, m/z 573 (M-HF)^− and m/z 445 (M-CF3CF2CHO)^− and their corresponding isotopically labeled [^13C6] internal standard ions at m/z 579 and 451, respectively. […]

eosinophil peroxidase = assay: Ring-bromination of L-tyrosine by isolated EPO at physiological levels of halides; assay type: biochemical; conditions: molar excess in reaction mixtures
Description: Reactions were initiated by addition of oxidant (H2O2, HOBr, N-bromo or N,N-dibromo amine) and performed in sodium phosphate buffer (pH 7.0) at 37° C. for 60 min. Proteins oxidized in vitro were prepared for analysis by first precipitating and desalting them in a single-phase extraction mixture comprised of H2O:methanol:H2O-saturated diethyl ether (1:3:7, v:v:v) as described in Hazen, S. L., Hsu, F. F., Gaut, J. P., Crowler, J. R. and Heinecke, J. W. “Modification of Proteins and Lipids by Myeloperoxidase-Derived Oxidants” In: Methods of Enzymology, Edited by Lester Packer, Vol. 300, pp. 88-106. Academic Press, Inc., San Diego. 1999, followed by acid hydrolysis in methane sulfonic acid.
Quantitative determination of 3-bromotyrosine and 3,5-dibromotyrosine production from free L-tyrosine was performed utilizing reverse-phase HPLC with a C18 column (Beckman Ultrasphere, 5 μm resin, 4.6×250 mm) equilibrated with solvent A (0.1% trifluoroacetic acid, pH 2.5). […] 3-Bromotyrosine and 3,5-dibromotyrosine were monitored on a diode array detector and quantified at 280 nm employing a standard curve constructed with authentic synthetic standards.
The ability of isolated EPO and MPO to form 3-bromotyrosine and 3,5-dibromotyrosine in the presence of physiological levels of halides was evaluated. […]

Compound | effect on 3-bromotyrosine production [2] | other results
N[C@@H](Cc1cc(Br)c(O)c(Br)c1)C(=O)O (single isomer, unassigned) [3,5-dibromotyrosine] |  | chemical stability of the product [1]: stable
[N-]=[N+]=[N-].[Na+] [NaN3] | inhibited | 
NCCS(=O)(=O)O [taurine] |  | effect on ring-bromination by EPO (eosinophil peroxidase): augmented
catalase | inhibited | 
